From US11472805B2, “Tricyclic compounds and their use as phosphodiesterase inhibitors” (Pfizer Inc., priority 2015, dated 2022)
Where a name gives a salt, the structure may show the parent alone. Read-outs that look alike come from different tables or passages of the source.

Key:
Type in all cases: biochemical
Human PDE4B1 = Human PDE4B1 (Homo sapiens (Human), UniProt Q07343, S133E/S654A/S659A/S661A); assay: PDE4B1 Scintillation Proximity Assay (SPA), inhibition of enzyme activity; conditions: read-out: Human PDE4B FL
Chain of Human PDE4B1 (Q07343 122-736 S133E/S654A/S659A/S661A): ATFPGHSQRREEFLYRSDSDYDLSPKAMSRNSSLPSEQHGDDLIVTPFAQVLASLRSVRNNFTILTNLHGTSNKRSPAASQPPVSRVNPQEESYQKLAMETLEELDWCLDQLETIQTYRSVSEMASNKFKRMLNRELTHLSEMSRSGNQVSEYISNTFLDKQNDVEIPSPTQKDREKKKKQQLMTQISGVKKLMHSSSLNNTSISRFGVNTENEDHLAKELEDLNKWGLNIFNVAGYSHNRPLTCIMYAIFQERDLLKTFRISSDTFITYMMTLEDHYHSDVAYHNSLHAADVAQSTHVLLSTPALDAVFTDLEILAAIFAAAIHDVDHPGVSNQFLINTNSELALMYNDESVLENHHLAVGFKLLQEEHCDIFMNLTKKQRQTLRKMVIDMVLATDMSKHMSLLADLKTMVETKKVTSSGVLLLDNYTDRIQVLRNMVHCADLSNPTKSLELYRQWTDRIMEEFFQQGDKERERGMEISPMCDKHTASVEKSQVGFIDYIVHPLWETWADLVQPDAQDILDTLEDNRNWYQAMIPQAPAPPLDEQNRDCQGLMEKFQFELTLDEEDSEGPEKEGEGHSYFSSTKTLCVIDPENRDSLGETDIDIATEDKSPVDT
Method: (§1) The PDE4A, PDE4B, PDE4C and PDE4D binding affinity for the compounds of the present invention was determined utilizing the following biological assay(s):
The recombinant Bacmid was isolated and used to transfect insect cells to generate a viral stock. To generate cell paste for purification, insect cells were infected with the virus stock and cells were harvested 72 hours after infection as described in Seeger, T. F. et al., Brain Research 985 (2003) 113-126. Insect cell paste was lysed and after centrifugation, the supernatant was chromatographed on Ni-NTA agarose (Qiagen) as described in Seeger, T. F. et al., Brain Research 985 (2003) 113-126. Ni-NTA agarose eluting fractions containing PDE4 were pooled, diluted with Q buffer A (20 mM Tris HCl pH 8, 5% glycerol, 1 mM TCEP) to reduce NaCl to ˜100 mM and loaded on a Source 15Q (GE Healthcare) column. After washing with Q buffer A/10% buffer B to baseline, PDE4D was eluted with a gradient from 10% to 60% of Buffer B (20 mM Tris HCl pH 8, 1 M NaCl, 5% glycerol, 1 mM TCEP). PDE4D fractions were analyzed by SDS-PAGE Coomassie blue staining, pooled based on purity, frozen and stored at −80° C.
(§2) The PDE4A3, PDE4B1, PDE4C1 and PDE4D3 assays use the Scintillation Proximity Assay (SPA) technology to measure the inhibition of human recombinant PDE4A1, PDE4B3, PDE4C1, and PDE4D3 enzyme activity by compounds in vitro. The PDE4A1, PDE4B3, PDE4C1, and PDE4D3 assays are run in parallel using identical parameters, except for the concentration of enzyme ([…]). The assays are performed in a 384-well format with 50 uL assay buffer (50 mM TRIS pH7.5; 1.3 mM MgCl2; 0.01% Brij) containing enough PDE4A3, PDE4B1, PDE4C1, and PDE4D to convert ˜20% of substrate (1 μM cAMP consisting of 20 nM 3H-cAMP+[…] cold cAMP) and a range of inhibitors. Reactions are incubated for 30 min at 25° C. The addition of 20 uL of 8 mg/ml yitrium silicate SPA beads (Perkin Elmer) stops the reaction. The plates are sealed (TopSeal, Perkin Elmer) and the beads are allowed to settle for 8 hrs, after which they are read on the Trilux Microbeta overnight.

human PDE4D3 = human PDE4D3 (Homo sapiens (Human), UniProt Q08499); assay: PDE4D3 Scintillation Proximity Assay (SPA), inhibition of enzyme activity; conditions: read-out: Human PDE4D FL
Chain of human PDE4D3 (Q08499 186-808): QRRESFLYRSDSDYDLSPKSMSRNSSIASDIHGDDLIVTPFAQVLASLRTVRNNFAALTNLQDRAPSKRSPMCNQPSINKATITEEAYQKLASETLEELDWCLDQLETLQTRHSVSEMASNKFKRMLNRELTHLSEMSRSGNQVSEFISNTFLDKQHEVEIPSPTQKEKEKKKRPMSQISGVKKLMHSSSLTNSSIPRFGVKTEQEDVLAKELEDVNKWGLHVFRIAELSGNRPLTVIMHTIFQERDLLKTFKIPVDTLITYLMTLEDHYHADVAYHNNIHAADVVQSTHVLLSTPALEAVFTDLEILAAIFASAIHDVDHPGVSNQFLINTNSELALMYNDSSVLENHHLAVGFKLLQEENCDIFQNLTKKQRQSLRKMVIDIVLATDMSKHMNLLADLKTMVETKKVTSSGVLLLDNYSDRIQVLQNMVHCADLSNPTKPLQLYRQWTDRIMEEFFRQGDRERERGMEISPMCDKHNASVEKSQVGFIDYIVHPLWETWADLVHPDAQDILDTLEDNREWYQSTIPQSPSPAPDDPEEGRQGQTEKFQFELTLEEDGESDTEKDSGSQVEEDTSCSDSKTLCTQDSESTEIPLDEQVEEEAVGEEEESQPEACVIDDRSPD
Method: as §1
A portion of the human PDE4D3 coding sequence (amino acids 50 to 672 from the sequence with accession number Q08499-2) was cloned into the baculovirus expression vector pFastBac (Invitrogen) engineered to include a C-terminal His6 affinity tag to aid in purification as described in Seeger, T. F. et al., Brain Research 985 (2003) 113-126. The recombinant Bacmid was isolated and used to transfect insect cells to generate a viral stock. To generate cell paste for purification, insect cells were infected and cells were harvested 72 hours after infection. Insect cell paste was lysed and after centrifugation, the supernatant was chromatographed on Ni-NTA agarose (Qiagen) as described in Seeger, T. F. et al., Brain Research 985 (2003) 113-126. Ni-NTA agarose eluting fractions containing PDE4 were pooled, diluted with Q Buffer A (50 mM Tris HCl pH 8, 4% glycerol, 100 mM NaCl, 1 mM TCEP, Protease inhibitors EDTA-free (Roche)) to reduce NaCl to ˜200 mM, and loaded on a Q Sepharose (GE Healthcare) column. After washing with Q buffer A to baseline, PDE4D was eluted with a gradient from 10% to 60% of Buffer B (50 mM Tris HCl pH 8, 1 M NaCl, 4% glycerol, 1 mM TCEP). PDE4D fractions were analyzed by SDS-PAGE Coomassie blue staining, pooled based on purity, frozen and stored at −80° C.
as §2

Human PDE4A3 = Human PDE4A3 (Homo sapiens (Human), UniProt P27815); assay: PDE4A3 Scintillation Proximity Assay (SPA), inhibition of enzyme activity; conditions: Table 10, geometric mean of 2-9 determinations unless otherwise indicated, read-out: Human PDE4A FL
Chain of Human PDE4A3 (P27815 other isoform, or with tags, fused parts or gaps): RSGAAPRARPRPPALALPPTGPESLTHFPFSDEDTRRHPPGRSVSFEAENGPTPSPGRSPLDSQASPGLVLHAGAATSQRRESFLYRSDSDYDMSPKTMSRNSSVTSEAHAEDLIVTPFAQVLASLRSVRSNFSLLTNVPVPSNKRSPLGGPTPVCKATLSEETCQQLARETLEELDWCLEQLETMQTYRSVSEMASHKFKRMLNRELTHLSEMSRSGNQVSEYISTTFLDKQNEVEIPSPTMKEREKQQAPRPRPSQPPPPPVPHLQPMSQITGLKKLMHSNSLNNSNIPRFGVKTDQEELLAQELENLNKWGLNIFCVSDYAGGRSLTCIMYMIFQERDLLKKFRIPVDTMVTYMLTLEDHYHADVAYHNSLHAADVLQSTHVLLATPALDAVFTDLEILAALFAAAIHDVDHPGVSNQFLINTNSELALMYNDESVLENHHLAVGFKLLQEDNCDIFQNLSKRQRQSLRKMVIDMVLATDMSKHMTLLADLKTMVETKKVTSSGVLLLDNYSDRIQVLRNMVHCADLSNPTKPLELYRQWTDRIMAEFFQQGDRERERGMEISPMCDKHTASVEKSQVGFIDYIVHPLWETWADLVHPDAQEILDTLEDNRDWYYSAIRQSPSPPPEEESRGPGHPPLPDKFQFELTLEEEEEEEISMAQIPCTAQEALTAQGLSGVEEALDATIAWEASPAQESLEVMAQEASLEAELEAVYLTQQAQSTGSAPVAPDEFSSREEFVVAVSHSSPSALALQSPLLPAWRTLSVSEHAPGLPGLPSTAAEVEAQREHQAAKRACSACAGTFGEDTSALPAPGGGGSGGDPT
Method: as §1
The recombinant Bacmid was isolated and used to transfect insect cells to generate a viral stock. To generate cell paste for purification, insect cells were infected with the virus stock and cells were harvested 72 hours after infection. Insect cell paste was lysed and after centrifugation, the supernatant was batch bound to Ni-NTA agarose (GE Healthcare) and eluted with 250 mM imidazole. This eluate was diluted with FLAG buffer (50 mM Tris HCL pH 7.5, 100 mM NaCl, 5% Glycerol, 1 mM TCEP with protease inhibitors) and batch bound to ant-FLAG M2 agarose (Sigma) overnight at 4° C. The agarose was packed into a column, washed with buffer and eluted with buffer containing elute using 250 ug/ml Flag-peptide. Fractions were analyzed using SDS-PAGE Coomassie blue staining and pooled based on purity. Pooled fractions were chromatographed on a S200 120 ml column (GE Healthcare) in 50 mM Tris HCL pH 7.5, 150 mM NaCl, 10% Glycerol, 2 mM TCEP with protease inhibitors. PDE4A3 fractions were analyzed by SDS-PAGE Coomassie blue staining, pooled based on purity, dialyzed against 50 mM Tris HCL pH 7.5, 100 mM NaCl, 20% Glycerol, 2 mM TCEP, frozen and stored at −80° C.
as §2

[1] = Table 10, geometric mean of 2-9 determinations unless otherwise indicated
[2] = Table 9, geometric mean of 2-9 determinations unless otherwise indicated

Compound | IC50 (Human PDE4B1; [1]) [nM] | IC50 (human PDE4D3; [1]) [nM] | IC50 (Human PDE4B1; [2]) [nM] | IC50 (human PDE4D3; [2]) [nM] | IC50 (Human PDE4A3) [nM]
O=C1c2c(-c3ccc(F)cn3)c3ncccc3n2CCN1C1CC1 [Example 62, 8-Cyclopropyl-10-(5-fluoropyridin-2-yl)-7,8-dihydropyrido[2′,3′:4,5]pyrrolo[1,2-a]pyrazin-9(6H)-one] |  |  | 332 | > 30000 | 
COc1ncc(-c2c3n(c4cncnc24)CCN(C2CC2)C3=O)cn1 [Example 89, 8-Cyclopropyl-10-(2-methoxypyrimidin-5-yl)-7,8-dihydropyrazino[1′,2′:1,5]pyrrolo[3,2-d]pyrimidin-9(6H)-one] | 2960 | > 30000 |  |  | 
COc1cc(-c2c3n(c4cccnc24)CCN(C2CC2)C3=O)c(F)cc1Cl [Example 15, 10-(4-Chloro-2-fluoro-5-methoxyphenyl)-8-cyclopropyl-7,8-dihydropyrido[2′,3′: 4,5]pyrrolo[1,2-a]pyrazin-9(6H)-one] |  |  | 6.87 | 442 | 
Cc1ccc(-c2c3n(c4nccnc24)CCN(C2CC2)C3=O)cn1 [Example 83, 8-Cyclopropyl-10-(6-methylpyridin-3-yl)-7,8-dihydropyrrolo[1,2-a:4,5-b′]dipyrazin-9(6H)-one] | 15400 | > 29700 |  |  | 
O=C1c2c(-c3ccsc3)c3ncccc3n2CCN1C1CC1 [Example 39, 8-Cyclopropyl-10-(thiophen-3-yl)-7,8-dihydropyrido[2′,3′:4,5]pyrrolo[1,2-a]pyrazin-9(6H)-one] |  |  | 78.7 | 1720 | 
COc1ncc(-c2c3n(c4nccnc24)CCN(C2CC2)C3=O)cn1 [Example 87, 8-Cyclopropyl-10-(2-methoxypyrimidin-5-yl)-7,8-dihydropyrrolo[1,2-a:4,5-b′]dipyrazin-9(6H)-one] | 2640 | > 28700 |  |  | 
Cn1nc(-c2c3n(c4cccnc24)CCN(C2CC2)C3=O)nc1C(F)F [Example 90, 8-Cyclopropyl-10-(5-(difluoromethyl)-1-methyl-1H-1,2,4-triazol-3-yl)-7,8-dihydropyrido[2′,3′:4,5]pyrrolo[1,2-a]pyrazin-9(6H)-one] | > 30000 | > 30000 |  |  | > 30000
O=C1c2c(-n3cccn3)c3ncccc3n2CCN1C1CC1 [Example 92, 8-Cyclopropyl-10-(1H-pyrazol-1-yl)-7,8-dihydropyrido[2′,3′:4,5]pyrrolo[1,2-a]pyrazin-9(6H)-one] | 15300 | > 29900 |  |  | 
O=c1c2c(-c3ccc(Cl)cc3)c3ncccc3n2ccn1-c1nnc[nH]1 [Example 6, 10-(4-Chlorophenyl)-8-(4H-1,2,4-triazol-3-yl)pyrido[2′,3′:4,5]pyrrolo[1,2-a]pyrazin-9(8H)-one] |  |  | 8.32 | 2670 | 

Continued, values first:

IC50 (Human PDE4B1; [1]) [nM] | IC50 (human PDE4D3; [1]) [nM] | IC50 (Human PDE4B1; [2]) [nM] | IC50 (human PDE4D3; [2]) [nM] | IC50 (Human PDE4A3) [nM] | Compound
59.5 | 30.6 |  |  |  | CC(=O)N1CCn2c(c(-c3ccc(Cl)cc3)c3ncccc32)C1=O [Example 78, 8-Acetyl-10-(4-chlorophenyl)-7,8-dihydropyrido[2′,3′:4,5]pyrrolo[1,2-a]pyrazin-9(6H)-one]
 |  | 5.87 | 476 |  | O=C1c2c(-c3ccc(Cl)cc3)c3ncccc3n2CCN1c1nnc[nH]1 [Example 5, 10-(4-Chlorophenyl)-8-(4H-1,2,4-triazol-3-yl)-7,8-dihydropyrido[2′,3′:4,5]pyrrolo[1,2-a]pyrazin-9(6H)-one]
 |  | 27.9 | 803 |  | CN1CCn2c(c(-c3ccc(Cl)cc3)c3ncccc32)C1=O [Example 30, 10-(4-Chlorophenyl)-8-methyl-7,8-dihydropyrido[2′,3′:4,5]pyrrolo[1,2-a]pyrazin-9(6H)-one]
 |  | 1 | 81 |  | CCCN1CCn2c(c(-c3ccc(Cl)cc3)c3ncccc32)C1=O [Example 17, 10-(4-Chlorophenyl)-8-propyl-7,8-dihydropyrido[2′,3′:4,5]pyrrolo[1,2-a]pyrazin-9(6H)-one]
 |  | 2.43 | 87.9 |  | CCN1CCn2c(c(-c3ccc(Cl)cc3)c3ncccc32)C1=O [Example 31, 10-(4-Chlorophenyl)-8-ethyl-7,8-dihydropyrido[2′,3′:4,5]pyrrolo[1,2-a]pyrazin-9(6H)-one]
 |  | 12.4 | 1110 |  | O=C1c2c(-c3ccc(Cl)cc3)c3ncccc3n2C[C@@H]2CCCN12 [Example 52, (6aS)-12-(4-Chlorophenyl)-6a,7,8,9-tetrahydro-6H,11H-pyrido[2′,3′:4,5]pyrrolo[1,2-a]pyrrolo[1,2-d]pyrazin-11-one]
 |  | 26.5 | 1470 |  | N#Cc1ccc(-c2c3n(c4cccnc24)CCN(C2CC2)C3=O)cc1 [Example 43, 4-(8-Cyclopropyl-9-oxo-6,7,8,9-tetrahydropyrido[2′,3′:4,5]pyrrolo[1,2-a]pyrazin-10-yl)benzonitrile]
 |  | 5.52 | 253 |  | Cc1cc(Cl)ccc1-c1c2n(c3cccnc13)CCN(C1CC1)C2=O [Example 56, 10-(4-Chloro-2-methylphenyl)-8-cyclopropyl-7,8-dihydropyrido[2′,3′:4,5]pyrrolo[1,2-a]pyrazin-9(6H)-one]
 |  | 18.5 | 1600 |  | O=C1NCCn2c1c(-c1ccc(Cl)cc1)c1ncccc12 [Example 19, 10-(4-Chlorophenyl)-7,8-dihydropyrido[2′,3′:4,5]pyrrolo[1,2-a]pyrazin-9(6H)-one]
 |  | 6.54 | 426 |  | COc1ccc(-c2c3n(c4cccnc24)CCN(C2CC2)C3=O)cn1 [Example 53, 8-Cyclopropyl-10-(6-methoxypyridin-3-yl)-7,8-dihydropyrido[2′,3′:4,5]pyrrolo[1,2-a]pyrazin-9(6H)-one]
 |  | 4.93 | 862 |  | O=C1c2c(-c3ccc(Cl)cc3)c3ncccc3n2CC2CCN12 (stereo not shown) [Example 67, 11-(4-Chlorophenyl)-6,6a,7,8-tetrahydro-10H-azeto[1,2-a]pyrido[2′,3′:4,5]pyrrolo[1,2-d]pyrazin-10-one]
 |  | 1.38 | 150 |  | O=C1c2c(-c3ccc(Cl)cc3)c3ncccc3n2C[C@H]2CCCN12 [Example 3, (6aR)-12-(4-Chlorophenyl)-6a, 7,8,9-tetrahydro-6H,11H-pyrido[2′,3′:4,5]pyrrolo[1,2-a]pyrrolo[1,2-d]pyrazin-11-one, trifluoroacetate salt]
